How the values were obtained:
T-cell (T-4 and T-8) = experiment: Measurement of cytokine (IL-2) by Elispot, T cell activity; type: cell-based, mouse; details: FIG. 1: Compound 3 1 μg/ml
Method: Elispot bioassay ([…] enzyme-linked immunospot assay) is a very sensitive quantification assay for detecting cytokine bound to the membrane because the bottom of each well of Elispot plates used in this assay was pre-coated with a cytokine specific antibody. Thus, Elispot assay was performed to measure the T cell activity. […] Each sample was tested in duplicate. Counting the number of IL-2 producing cells by Elispot is accomplished with Elispot reader (AID Elispot Reader System).

dendritic cells = experiment: Expression of adhesion molecules of dendritic cells (RT-PCR); type: cell-based, Balb/c AnN mice; details: 1 μg/ml, compared to control
Method: Bone marrow cells were obtained from the femurs and tibias of Balb/c AnN mice (Park, J. et al. (2003) J. Korean Med. Sci., 18: 372-380). The cells were washed 3 times in RPMI, and then mononuclear cells were obtained. These mononuclear cells were allowed to adhere to tissue culture flask 3 hours in RPMI and 10% FBS. After incubation, the adherent cells (monocytes) were removed and non-adherent cells were placed in 100 mm tissue culture dishes, in a concentration of 1×10^5 cells/ml in RPMI plus 10% FBS supplemented with 20 ng/ml murine rGM-CSF (R & D systems, Minneapolis, Minn., USA), 10 ng/ml, murine IL-4 (R&D systems), and 2.5 ng/ml murine TNF-α (R & D systems). Culture dishes were fed every 3 days. Murine TNF-α (R & D systems) was added at the 6th day of the culture. After that, murine TNF-α (R & D systems) was added every 3 days until on the 11th day. Mature dendritic cells were harvested for RT-PCR of adhesion molecule studies. […]
Total RNA separated from dendritic cells and MS-5, low density cells cultured with oligo(dt)-primer, was reverse-transcribed, and PCR was performed at 94° C. for 30 seconds, 65° C. for 30 seconds and 72° C. for 50 seconds. […] For the quantification, PCR with GAPDH was performed to confirm the corresponding cDNA.

KIGB-5 cells = experiment: Biliary cancer model in hamster, Compound 3 dose groups; type: in vivo, Syrian golden hamsters; details: for gross findings, tumor: 4th week
Method: In another hand, six week old female Syrian golden hamsters were housed in specific pathogen free unit. KIGB-5 cells (5×10^5) suspended in 100 μl of RPMI 1640 serum-free medium were intravenously injected via femoral vein. […] Animals of each group were sacrificed at 4, 8, 12 weeks for pathological examination. […] At 8th week, control group observed multiple metastatic lesions in both lungs.

SMILES: CCCCC/C=C\C/C=C\CCCCCCCC(=O)OC(COC(C)=O)COC(=O)CCCCCCCCCCCCCCC (stereo not shown) [Compound 3]
- increased T-4 activity comparing to control group (IL-2 Elispot spots) (T-cell (T-4 and T-8); T-4 cells): 1.52 folds
- increased T-8 activity comparing to control group (IL-2 Elispot spots) (T-cell (T-4 and T-8); T-8 cells): 1.46 folds
- expressions of adhesion molecules Icam-2, VLA-5, LFA-1 (dendritic cells): significantly increased
- gross findings, tumor (KIGB-5 cells; 10 mg/kg/day P.O.): no evidence of tumor
- gross findings, tumor (KIGB-5 cells; 25 mg/kg/day P.O.): no evidence of tumor
- gross findings, tumor (KIGB-5 cells; 50 mg/kg/day P.O.): no evidence of tumor
- metastatic lung lesions (KIGB-5 cells; 8th week, 10 mg/kg/day P.O.): showed tumor in the left lung
- metastatic lung lesions with microscope (KIGB-5 cells; 8th week, 25 mg/kg/day P.O.): showed one minute lesion with microscope
- metastatic lung lesions with naked eye (KIGB-5 cells; 8th week, 25 mg/kg/day P.O.): did not show any metastatic lung lesions with naked eye
- metastatic lung lesions with naked eye (KIGB-5 cells; 8th week, 50 mg/kg/day P.O.): did not show any metastatic lung lesions with naked eye

Reference: patent US7662853B2, “Monoacetyldiacylglycerol derivative for the treatment of sepsis” (priority 2004, dated 2010)
